# Calls of active or inactive are those of the source. The calls are words filed in the database; no cut-off is given here.
# What was measured:
# [1] = biological target: Bacterial DNA-directed RNA polymerase (Bacteria, UniProt P0A7Z4+P0A800+P0A8T7+P0A8V2); assay: Inhibition of Escherichia coli DNA-dependent RNA polymerase; assay type: protein-complex assay
# [2] = system: Mus musculus; assay: Toxicity in mouse P388 cells allografted CDF1 mouse assessed as mortality at 6 mg/kg, ip administered on day 1, 5 and 9; assay type: organism-based; design: dose 6 mg/kg, route intraperitoneal; details: in vivo
# [3] = system: Mus musculus; assay: Toxicity in mouse P388 cells allografted CDF1 mouse assessed as weight loss at 4 mg/kg, ip administered on day 1, 5 and 9; assay type: organism-based; design: dose 4 mg/kg, route intraperitoneal; details: in vivo
# [4] = system: Mus musculus; assay: Toxicity in mouse P388 cells allografted CDF1 mouse assessed as weight loss at 6 mg/kg, ip administered on day 1, 5 and 9; assay type: organism-based; design: dose 6 mg/kg, route intraperitoneal; details: in vivo
# [5] = system: Calf thymus DNA; assay: Binding affinity to calf thymus DNA at 1 x 10^-5 M after 30 mins by circular dichroism analysis; assay type: nucleic-acid assay; details: Bos taurus
# [6] = system: Calf thymus DNA; assay: Binding affinity to calf thymus DNA at 1 x 10^-5 M by thermal denaturation assay; assay type: nucleic-acid assay; details: Bos taurus
# [7] = system: Calf thymus DNA; assay: Binding affinity to calf thymus DNA at 1 x 10^-5 M by lectron spin resonance analysis; assay type: nucleic-acid assay; details: Bos taurus
# [8] = biological target: T1, Bacterial DNA-directed RNA polymerase (Bacteria) (UniProt P0A8V2+P0A7Z4+P0A8T7+P0A800); assay: Inhibition of Escherichia coli DNA-dependent RNA polymerase at 20 ug/ml using calf thymus DNA as primer; assay type: protein-complex assay
# T1 sequence (P0A7Z4 whole entry partner): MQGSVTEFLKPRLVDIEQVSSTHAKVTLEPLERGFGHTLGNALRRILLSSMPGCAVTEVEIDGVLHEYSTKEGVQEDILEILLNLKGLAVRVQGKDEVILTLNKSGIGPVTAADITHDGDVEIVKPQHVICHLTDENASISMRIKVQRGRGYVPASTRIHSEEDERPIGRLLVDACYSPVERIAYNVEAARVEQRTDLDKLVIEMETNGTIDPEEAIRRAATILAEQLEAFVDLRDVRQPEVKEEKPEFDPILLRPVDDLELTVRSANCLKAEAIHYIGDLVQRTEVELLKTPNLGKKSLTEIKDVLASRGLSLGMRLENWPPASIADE
# T1 sequence (P0A800 2-91 partner limits assumed): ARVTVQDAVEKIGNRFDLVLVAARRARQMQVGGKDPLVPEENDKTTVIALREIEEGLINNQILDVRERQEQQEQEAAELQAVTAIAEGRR
# T1 sequence (P0A8T7 whole entry partner): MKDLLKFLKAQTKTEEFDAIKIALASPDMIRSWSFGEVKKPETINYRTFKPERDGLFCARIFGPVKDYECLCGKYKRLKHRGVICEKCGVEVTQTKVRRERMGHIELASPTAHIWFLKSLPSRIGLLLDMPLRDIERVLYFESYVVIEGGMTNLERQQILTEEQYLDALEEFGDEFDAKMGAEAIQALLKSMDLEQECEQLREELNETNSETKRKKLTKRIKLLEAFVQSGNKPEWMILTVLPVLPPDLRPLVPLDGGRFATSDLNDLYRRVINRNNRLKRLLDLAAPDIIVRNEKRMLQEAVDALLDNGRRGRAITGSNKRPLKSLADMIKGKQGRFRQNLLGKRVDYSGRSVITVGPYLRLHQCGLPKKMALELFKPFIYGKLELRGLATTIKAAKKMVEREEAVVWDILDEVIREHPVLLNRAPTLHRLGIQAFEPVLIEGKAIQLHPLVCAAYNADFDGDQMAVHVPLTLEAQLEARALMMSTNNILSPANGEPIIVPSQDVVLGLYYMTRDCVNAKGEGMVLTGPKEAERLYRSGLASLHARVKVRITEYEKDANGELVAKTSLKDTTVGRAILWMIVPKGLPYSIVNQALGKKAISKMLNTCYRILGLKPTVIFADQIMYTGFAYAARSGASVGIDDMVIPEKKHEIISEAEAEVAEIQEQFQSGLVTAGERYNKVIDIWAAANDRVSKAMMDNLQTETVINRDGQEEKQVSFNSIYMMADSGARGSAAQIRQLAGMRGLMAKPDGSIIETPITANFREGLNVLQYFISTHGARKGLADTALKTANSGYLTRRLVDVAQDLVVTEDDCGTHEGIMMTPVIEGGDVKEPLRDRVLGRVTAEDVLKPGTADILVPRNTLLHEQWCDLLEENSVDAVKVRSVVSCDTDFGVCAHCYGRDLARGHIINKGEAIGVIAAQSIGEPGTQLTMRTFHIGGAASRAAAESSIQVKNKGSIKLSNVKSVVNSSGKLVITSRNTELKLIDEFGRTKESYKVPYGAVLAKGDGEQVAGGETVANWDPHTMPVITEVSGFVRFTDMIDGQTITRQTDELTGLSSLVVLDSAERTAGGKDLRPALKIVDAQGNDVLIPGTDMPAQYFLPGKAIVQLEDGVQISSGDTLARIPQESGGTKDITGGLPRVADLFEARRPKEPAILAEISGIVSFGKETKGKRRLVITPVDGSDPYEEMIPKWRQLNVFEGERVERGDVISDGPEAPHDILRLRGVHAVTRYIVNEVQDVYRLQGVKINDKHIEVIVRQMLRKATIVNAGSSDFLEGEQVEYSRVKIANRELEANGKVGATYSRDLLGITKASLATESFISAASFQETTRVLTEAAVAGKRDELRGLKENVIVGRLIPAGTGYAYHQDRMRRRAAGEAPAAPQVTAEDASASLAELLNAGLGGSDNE
# T1 sequence (P0A8V2 whole entry): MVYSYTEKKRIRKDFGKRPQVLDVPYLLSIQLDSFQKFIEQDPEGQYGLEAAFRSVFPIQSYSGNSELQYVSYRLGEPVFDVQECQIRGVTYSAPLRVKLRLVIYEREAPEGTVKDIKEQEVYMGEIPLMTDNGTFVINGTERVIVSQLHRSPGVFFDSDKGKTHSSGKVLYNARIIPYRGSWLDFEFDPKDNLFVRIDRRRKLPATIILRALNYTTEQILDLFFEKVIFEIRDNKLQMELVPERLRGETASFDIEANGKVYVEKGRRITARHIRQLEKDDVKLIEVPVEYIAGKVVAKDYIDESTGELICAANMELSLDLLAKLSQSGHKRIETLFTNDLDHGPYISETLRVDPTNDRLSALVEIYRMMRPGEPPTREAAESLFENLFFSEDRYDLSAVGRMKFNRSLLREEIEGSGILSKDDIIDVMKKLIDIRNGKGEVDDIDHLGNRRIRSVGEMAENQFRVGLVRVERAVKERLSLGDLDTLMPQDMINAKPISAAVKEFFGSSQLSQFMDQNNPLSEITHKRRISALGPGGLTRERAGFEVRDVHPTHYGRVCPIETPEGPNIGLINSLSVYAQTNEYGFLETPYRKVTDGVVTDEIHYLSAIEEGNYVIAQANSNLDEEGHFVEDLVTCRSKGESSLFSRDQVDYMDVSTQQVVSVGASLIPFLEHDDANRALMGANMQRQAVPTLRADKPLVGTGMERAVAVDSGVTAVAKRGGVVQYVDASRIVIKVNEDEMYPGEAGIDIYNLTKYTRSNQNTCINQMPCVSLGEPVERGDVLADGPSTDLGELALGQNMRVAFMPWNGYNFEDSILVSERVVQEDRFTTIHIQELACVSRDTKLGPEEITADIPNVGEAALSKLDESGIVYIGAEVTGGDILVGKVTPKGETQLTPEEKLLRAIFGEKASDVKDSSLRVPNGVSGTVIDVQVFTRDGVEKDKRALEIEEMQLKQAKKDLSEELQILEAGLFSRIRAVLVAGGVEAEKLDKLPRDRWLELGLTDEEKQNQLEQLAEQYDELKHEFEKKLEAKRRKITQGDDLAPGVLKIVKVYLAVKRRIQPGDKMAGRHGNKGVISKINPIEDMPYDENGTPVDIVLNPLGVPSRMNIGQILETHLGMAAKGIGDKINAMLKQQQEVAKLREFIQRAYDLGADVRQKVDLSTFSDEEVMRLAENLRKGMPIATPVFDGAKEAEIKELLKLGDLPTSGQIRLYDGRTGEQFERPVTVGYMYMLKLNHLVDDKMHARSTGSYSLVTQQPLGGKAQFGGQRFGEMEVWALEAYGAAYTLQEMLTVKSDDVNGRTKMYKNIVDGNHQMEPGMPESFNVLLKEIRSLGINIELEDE
# [9] = biological target: T1, Bacterial DNA-directed RNA polymerase (Bacteria); assay: Inhibition of Escherichia coli DNA-dependent RNA polymerase at 20 ug/ml using Micrococcus luteus DNA as primer; assay type: protein-complex assay
# [10] = biological target: T1, Bacterial DNA-directed RNA polymerase (Bacteria); assay: Inhibition of Escherichia coli DNA-dependent RNA polymerase at 10 ug/ml using calf thymus DNA as primer; assay type: protein-complex assay
# [11] = biological target: T1, Bacterial DNA-directed RNA polymerase (Bacteria); assay: Inhibition of Escherichia coli DNA-dependent RNA polymerase at 10 ug/ml using Micrococcus luteus DNA as primer; assay type: protein-complex assay
# [12] = biological target: T1, Bacterial DNA-directed RNA polymerase (Bacteria); assay: Inhibition of Escherichia coli DNA-dependent RNA polymerase at 5 ug/ml using calf thymus DNA as primer; assay type: protein-complex assay
# [13] = biological target: T1, Bacterial DNA-directed RNA polymerase (Bacteria); assay: Inhibition of Escherichia coli DNA-dependent RNA polymerase at 5 ug/ml using Micrococcus luteus DNA as primer; assay type: protein-complex assay
# [14] = biological target: T1, Bacterial DNA-directed RNA polymerase (Bacteria); assay: Inhibition of Escherichia coli DNA-dependent RNA polymerase at 2.5 ug/ml using calf thymus DNA as primer; assay type: protein-complex assay
# [15] = biological target: T1, Bacterial DNA-directed RNA polymerase (Bacteria); assay: Inhibition of Escherichia coli DNA-dependent RNA polymerase at 2.5 ug/ml using Micrococcus luteus DNA as primer; assay type: protein-complex assay
# [16] = system: L1210; assay: Cytotoxicity against mouse L1210 cells at 10 ug/ml after 48 hrs; assay type: functional; details: L1210, 48 h
# [17] = system: L1210; assay: Cytotoxicity against mouse L1210 cells at 5 ug/ml after 48 hrs; assay type: functional; details: L1210, 48 h
# [18] = system: L1210; assay: Cytotoxicity against mouse L1210 cells at 1 ug/ml after 48 hrs; assay type: functional; details: L1210, 48 h
# [19] = system: L1210; assay: Cytotoxicity against mouse L1210 cells at 0.5 ug/ml after 48 hrs; assay type: functional; details: L1210, 48 h
# [20] = system: L1210; assay: Cytotoxicity against mouse L1210 cells at 0.1 ug/ml after 48 hrs; assay type: functional; details: L1210, 48 h
# [21] = system: L1210; assay: Cytotoxicity against mouse L1210 cells at 0.05 ug/ml after 48 hrs; assay type: functional; details: L1210, 48 h
# [22] = system: L1210; assay: Cytotoxicity against mouse L1210 cells at 0.01 ug/ml after 48 hrs; assay type: functional; details: L1210, 48 h
# [23] = system: L1210; assay: Cytotoxicity against mouse L1210 cells at 0.001 ug/ml after 48 hrs; assay type: functional; details: L1210, 48 h
# [24] = system: P388; assay: Antitumor activity against mouse P388 cells allografted in CDF1 mouse assessed as survival at 6 mg/kg, ip administered on day 1, 5 and 9; assay type: functional; details: route intraperitoneal
# [25] = system: P388; assay: Antitumor activity against mouse P388 cells allografted in CDF1 mouse assessed as survival at 4 mg/kg, ip administered on day 1, 5 and 9; assay type: functional; details: route intraperitoneal
# [26] = system: P388; assay: Antitumor activity against mouse P388 cells allografted in CDF1 mouse assessed as survival at 2.7 mg/kg, ip administered on day 1, 5 and 9; assay type: functional; details: route intraperitoneal
# [27] = system: P388; assay: Antitumor activity against mouse P388 cells allografted in CDF1 mouse assessed as survival at 1.8 mg/kg, ip administered on day 1, 5 and 9; assay type: functional; details: route intraperitoneal
# [28] = system: P388; assay: Antitumor activity against mouse P388 cells allografted in CDF1 mouse assessed as survival at 1.2 mg/kg, ip administered on day 1, 5 and 9; assay type: functional; details: route intraperitoneal
# [29] = system: P388; assay: Antitumor activity against mouse P388 cells allografted in CDF1 mouse assessed as survival at 0.8 mg/kg, ip administered on day 1, 5 and 9; assay type: functional; details: route intraperitoneal
Structure (SMILES),Activity [5],ΔTm [6] [°C],Activity [7],inhibition [8] [%],inhibition [9] [%],inhibition [10] [%],inhibition [11] [%],inhibition [12] [%],inhibition [13] [%],inhibition [14] [%],inhibition [15] [%],inhibition at 10 µg/mL [16] [%],inhibition at 5 µg/mL [17] [%],inhibition at 1 µg/mL [18] [%],inhibition at 0.5 µg/mL [19] [%],inhibition at 0.1 µg/mL [20] [%],inhibition at 0.05 µg/mL [21] [%],inhibition at 0.01 µg/mL [22] [%],inhibition at 0.001 µg/mL [23] [%],Survival [24] [days],other results
Cc1c2oc3c(C)ccc(C(=O)N[C@@H]4C(=O)N[C@H](C(C)C)C(=O)N5CCC[C@H]5C(=O)N(C)CC(=O)N(C)[C@@H](C(C)C)C(=O)O[C@@H]4C)c3nc-2c(C(=O)N[C@@H]2C(=O)N[C@H](C(C)C)C(=O)N3CCC[C@H]3C(=O)N(C)CC(=O)N(C)[C@@H](C(C)C)C(=O)O[C@@H]2C)c(NCCNC2CC(C)(C)[N+]([O-])C(C)(C)C2)c1=O,–,–,–,–,–,–,–,–,–,–,–,–,–,–,–,–,–,–,–,–,IC50 [1]: 2750 nM; Activity [2]: Toxic; Activity [3]: Toxic
Cc1c2oc3c(C)ccc(C(=O)N[C@@H]4C(=O)N[C@H](C(C)C)C(=O)N5CCC[C@H]5C(=O)N(C)CC(=O)N(C)[C@@H](C(C)C)C(=O)O[C@@H]4C)c3nc-2c(C(=O)N[C@@H]2C(=O)N[C@H](C(C)C)C(=O)N3CCC[C@H]3C(=O)N(C)CC(=O)N(C)[C@@H](C(C)C)C(=O)O[C@@H]2C)c(NC2CC(C)(C)[N+]([O-])C(C)(C)C2)c1=O,–,–,–,–,–,–,–,–,–,–,–,–,–,–,–,–,–,–,–,–,Activity [4]: Toxic
Cc1c2oc3c(C)ccc(C(=O)N[C@@H]4C(=O)N[C@H](C(C)C)C(=O)N5CCC[C@H]5C(=O)N(C)CC(=O)N(C)[C@@H](C(C)C)C(=O)O[C@@H]4C)c3nc-2c(C(=O)N[C@@H]2C(=O)N[C@H](C(C)C)C(=O)N3CCC[C@H]3C(=O)N(C)CC(=O)N(C)[C@@H](C(C)C)C(=O)O[C@@H]2C)c(NCCCNC2CC(C)(C)N([O])C(C)(C)C2)c1=O,Active,3.5,Active,79,62,49,32,78,52,28,22,98,69,45,33,16,0,0,0,29,T/C [24]: 171%; Survival [25]: 18 days; T/C [25]: 171%; Survival [26]: 18 days; T/C [26]: 181%; Survival [27]: 19 days; T/C [27]: 143%; Survival [28]: 15 days; T/C [28]: 143%; Survival [29]: 15 days
Cc1c2oc3c(C)ccc(C(=O)N[C@@H]4C(=O)N[C@H](C(C)C)C(=O)N5CCC[C@H]5C(=O)N(C)CC(=O)N(C)[C@@H](C(C)C)C(=O)O[C@@H]4C)c3nc-2c(C(=O)N[C@@H]2C(=O)N[C@H](C(C)C)C(=O)N3CCC[C@H]3C(=O)N(C)CC(=O)N(C)[C@@H](C(C)C)C(=O)O[C@@H]2C)c(NCCNC2CC(C)(C)N([O])C(C)(C)C2)c1=O,inactive,2.8,inactive,88,91,81,78,61,56,43,42,99,98,71,62,41,15,0,0,8,T/C [24]: 76%; Survival [25]: 25 days; T/C [25]: 238%; Survival [26]: 19 days; T/C [26]: 181%; Survival [27]: 17 days; T/C [27]: 162%; Survival [28]: 16 days; T/C [28]: 152%; Survival [29]: 19 days; T/C [29]: 181%
Cc1c2oc3c(C)ccc(C(=O)N[C@@H]4C(=O)N[C@H](C(C)C)C(=O)N5CCC[C@H]5C(=O)N(C)CC(=O)N(C)[C@@H](C(C)C)C(=O)O[C@@H]4C)c3nc-2c(C(=O)N[C@@H]2C(=O)N[C@H](C(C)C)C(=O)N3CCC[C@H]3C(=O)N(C)CC(=O)N(C)[C@@H](C(C)C)C(=O)O[C@@H]2C)c(NC2CC(C)(C)N([O])C(C)(C)C2)c1=O,inactive,1.7,inactive,78,77,62,57,41,33,37,21,98,96,57,39,21,10,0,0,29,T/C [24]: 276%; Survival [25]: 26 days; T/C [25]: 248%; Survival [26]: 19 days; T/C [26]: 181%; Survival [27]: 20 days; T/C [27]: 190%; Survival [28]: 17 days; T/C [28]: 162%; Survival [29]: 17 days; T/C [29]: 162%
Cc1c2oc3c(C)ccc(C(=O)N[C@@H]4C(=O)N[C@H](C(C)C)C(=O)N5CCC[C@H]5C(=O)N(C)CC(=O)N(C)[C@@H](C(C)C)C(=O)O[C@@H]4C)c3nc-2c(C(=O)N[C@@H]2C(=O)N[C@H](C(C)C)C(=O)N3CCC[C@H]3C(=O)N(C)CC(=O)N(C)[C@@H](C(C)C)C(=O)O[C@@H]2C)c(NCCCNC2CC(C)(C)[N+]([O-])C(C)(C)C2)c1=O,–,–,–,–,–,–,–,–,–,–,–,–,–,–,–,–,–,–,–,–,IC50 [1]: 2730 nM; Activity [4]: Toxic

# From ChEMBL document CHEMBL3227999, “Synthesis and biological properties of N2-substituted spin-labeled analogues of actinomycin D” (J Med Chem, 1979)
